Tests used:
HL60 cells = experiment: Differentiation and induction effects on HL60 cells (CD11b positive cells, flow cytometry); assay type: cell-based; settings: Homo sapiens, HL-60, 120 h; concentration at which the existing ratio of CD11b positive cells becomes 33%; cultivation for 5 days; read-out: Differentiation and induction effects of HL60 cells ED1/3
From the text: Differentiation and Induction Effects on HL60 Cells
It is known that human-derived promyelocytic leukemia cell strains HL60 differentiate into the corresponding granulocytic cells in the presence of all-trans retinoic acid [Breitman, T. Selonick., S. and Colling, S. Proc. Natl. Acad. Sci., 77, 2936(1980)]. In general, cells after differentiation have come to express specific differentiated antigens on their surface. When the HL60 cells are differentiated into granulocytic cells, CD11b which is a differential antigen between granulocytes and monocytes is expressed on the surface of the cells [Fontana, J A., Reppuci, A. Durham, J P. and Mirand, D. Cancer Res. 46, 2469-2473(1986)]. Effects of the invention compound on the differentiation and induction into granulocyte cells were studied by making use of the above-described phenomenon.
HL60 cells were cultured and kept in RPMI 1640 (a medium formulated by Rosewell Park Memorial Institute) to which 10% bovine fetal serum, 1 mM sodium […], 50 μM β-mercaptoethanol, 100 IU/ml of penicillin and 100 μg/ml of streptomycin had been added.
On each well of a 24-well plate, a 1 ml portion of the suspension containing HL60 in an amount of 1×10^5 […] was seeded. The invention compound was then added thereto at varied concentrations, followed by cultivation for 5 days in a 5% CO2-air incubator. After cultivation, the cells of each well were collected in a test tube, to which an FITC-labeled monoclonal antibody against Cd11b, that is, a granulocyte-monocyte specific antigen was added. The cells were then immobilized with 0.2% paraformaldehyde. The existing ratio of CD11b positive cells in the vial HL60 cell group present in each well was determined using flow cytometry [Miller, L J., Schwarting, R. and Springer, T A. J. Immunol. 137, 2891-2900(1986)]. The existing ratios of CD11b positive cells-of-compounds which will be described below were increased according to the concentration. The concentration at which the existing ratio of the positive cells becomes 33% is defined as ED1/3.

[1] = biological target: T1, Retinoic acid receptor: RAR (Homo sapiens, UniProt P10276); experiment: Receptor binding assay by using human promyelocytic leukemia cells HL60 (nucleus-extracted fraction, 3H-all-trans retinoic acid); settings: 50% inhibition concentration of 3H-all-trans retinoic acid binding, 4° C. for 16 hours
T1 construct: using a fraction extracted from the nucleus of HL60; endogenous in cells; host or cells: HL60 cells, nucleus-extracted fraction (0.4 M KCl extract, 100,000 x g supernatant)
T1 sequence (P10276 1-462): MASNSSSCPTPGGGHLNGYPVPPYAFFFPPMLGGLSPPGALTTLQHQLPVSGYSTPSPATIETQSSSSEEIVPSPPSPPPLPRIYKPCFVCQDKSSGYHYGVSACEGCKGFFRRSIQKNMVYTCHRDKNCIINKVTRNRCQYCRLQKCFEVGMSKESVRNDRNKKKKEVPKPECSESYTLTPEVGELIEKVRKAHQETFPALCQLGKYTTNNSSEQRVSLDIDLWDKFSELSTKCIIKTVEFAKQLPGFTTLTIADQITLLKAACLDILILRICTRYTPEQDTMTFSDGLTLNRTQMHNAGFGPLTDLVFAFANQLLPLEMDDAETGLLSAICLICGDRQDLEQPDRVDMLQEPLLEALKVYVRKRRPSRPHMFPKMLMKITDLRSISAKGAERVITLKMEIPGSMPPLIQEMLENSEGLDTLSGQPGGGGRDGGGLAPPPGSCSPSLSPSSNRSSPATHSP
Experimental: Receptor binding assay by using human promyelocytic leukemia cells HL60
The nucleus-extracted fraction was prepared as described below.
In 15 ml of Solution A [5 mM sodium phosphate (pH 7.4), 10 mM monothioglycerol, 10% v/v glycerol, 1 mM phenylmethyl sulfonyl fluoride (PMSF), 10 μg/ml of aprotinin and 25 μg/ml of leupeptin], HL60 cells (5×10^8) were suspended. The resulting suspension was homogenized, followed by centrifugal separation to remove the supernatant. The precipitate so obtained was suspended in 15 ml of Solution B [10 mM tris-HCl (Tris-HCl) (pH 8.5), 10 mM monothioglycerol, 10% (v/v) glycerol, 1 mM PMSF, 10 μg/ml aprotinin, 25 μg/ml leupeptin and 0.4 M KC1]. After being allowed to stand at 4° C. for one hour, the resulting suspension was subjected to ultracentrifugation at 100,000 xg and 4° C. for one hour.
Receptor binding assay was carried out as follows:
The resulting mixture was allowed to stand at 4° C. for 16 hours. […] The count of the supernatant was determined by a scintillation counter.

Structure (SMILES) | EC (33% CD11b positive cells) (HL60 cells) | IC50 [1] | melting point
CC(C)c1ncc(-c2ccc(-c3ccc(C(=O)O)cc3)[nH]2)nc1C(C)C [Compound of Ex. 42, 4-[2-[5-[2-(5,6-Diisopropylpyrazinyl)]pyrrolyl]]benzoic acid] | 0.00033 µM | 2 nM | 246 °C (dec.)
CC1(C)CCC(C)(C)c2nc(-c3cc(-c4ccc(C(=O)O)cc4)no3)cnc21 [Compound of Ex. 23, 4-[3-[5-[2-(5,6,7,8-Tetrahydro-5,5,8,8-tetramethylquinoxalyl)]isoxazolyl]]benzoic acid] | 0.0006 µM | 11 nM | –
CC1(C)CC(C)(C)c2nc(-c3ccc(-c4ccc(C(=O)O)cc4)[nH]3)cnc21 [Compound of Ex. 43, 4-[2-[5-[2-(5,5,7,7-Tetramethylcyclopenta[b]pyrazinyl)]-pyrrolyl]]benzoic acid] | 0.00036 µM | 36 nM | 269 °C (dec.)
CC(C)c1cc(-c2ccc(-c3ccc(C(=O)O)cc3)[nH]2)nn1C(C)(C)C [Compound of Ex. 99, 4-{2-{5-[3-(1-tert-Butyl-5-isopropylpyrazolyl)]pyrrolyl}}benzoic acid] | 4.7e-05 µM | 3.4 nM | –
CC1(C)CCC(C)(C)c2cc(-c3ccc(-c4ccc(C(=O)O)cc4)[nH]3)ccc21 [1), reference compound] | 0.00094 µM | 0.5 nM | –
CC1(C)CCC(C)(C)c2nc(-c3ccc(-c4ccc(C(=O)O)cc4)[nH]3)cnc21 [Compound of Ex. 6, 4-[2-[5-[2-(5,6,7,8-Tetrahydro-5,5,8,8-tetramethylquinoxalyl)]pyrrolyl]]benzoic acid] | 5.6e-05 µM | 1.6 nM | –
